This is an account of results in ChEMBL document CHEMBL1201862, “PubChem BioAssay data set” (2004).

Some test systems named below: A549; HCT-116; OVCAR-8; SK-MEL-5; SF-268; DMS-114; NCI-H460; HL-60; NCI-H522; OVCAR-4; EKVX; HCC 2998; SK-MEL-2; OVCAR-3; HCT-15; LOX IMVI; IGROV-1; RPMI-8226; M14; TK-10.
Assay in all cases: inhibition of tumour cell growth, NCI panel, 48 h

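Dose response: 5 concentrations. Exposure: 48 h. Format: 96-well plates. Endpoint: linear interpolation; highest concentration if not reached. Here, GI50 denotes the concentration required for 50% inhibition of growth.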 Active and inactive are the calls of the source. Cut-off read from the data, not from the text of the source: active = GI50 up to about 1.1 µM and inactive = higher.

On to `O=C(O)CCC(NC(=O)c1ccc(Nc2nc3cc(C(F)(F)F)ccc3nc2-c2ccccc2)cc1)C(=O)O` (stereo not given), for which the GI50 is > 86.1 µM (inactive) with A549; 71 µM (inactive) with HCT-116; > 100 µM (inactive) with OVCAR-8; > 100 µM (inactive) in the assay on SK-MEL-5; > 100 µM (inactive) with SF-268; > 100 µM (inactive) in the assay on DMS-114. In addition, the GI50 in the assay on NCI-H460 was 43.3 µM (inactive); with HL-60 it was 84.3 µM (inactive); in the assay on NCI-H522, 35.6 µM (inactive); in the assay on OVCAR-4, 31.3 µM (inactive); in the assay on EKVX it was > 100 µM (inactive); in the assay on HCC 2998 it was 66.5 µM (inactive). Besides, the GI50 in the assay on SK-MEL-2 is > 100 µM (inactive); with OVCAR-3 it was > 100 µM (inactive); with HCT-15, 60.3 µM; in the assay with LOX IMVI it was 44.9 µM (inactive); in the assay on IGROV-1 it was > 100 µM (inactive); with RPMI-8226, > 63.1 µM (inactive).

For the compound `O=c1[nH]c(=O)n(CCOCP(=O)(O)O)nc1Br`, the GI50 in the assay with A549, in the assay with OVCAR-8, in the assay on M14, in the assay on SK-MEL-5, in the assay on SF-268 and in the assay on TK-10 was > 100 µM (inactive) throughout. Besides, the GI50 in the assay with NCI-H460, in the assay on HL-60, in the assay on NCI-H522, in the assay with EKVX, with HCC 2998 and in the assay with SK-MEL-2 was > 100 µM (inactive) each time. For the same compound, the GI50 with OVCAR-3 was > 100 µM (inactive); with HCT-15, greater than 100 µM; in the assay on LOX IMVI it was > 100 µM (inactive); in the assay with IGROV-1 it was > 100 µM (inactive); in the assay with RPMI-8226 it was > 100 µM (inactive).

Consider `Oc1cc(O)cc(/C=C/c2ccc(O)c(O)c2)c1` [PICEATANNOL], for which the GI50 was 18.8 µM (inactive) in the assay on A549; 7.45 µM (inactive) with HCT-116; 24.2 µM (inactive) with OVCAR-8; 11.1 µM (inactive) with SK-MEL-5; 8.59 µM (inactive) in the assay on SF-268; 5.66 µM (inactive) with DMS-114. In addition, the GI50 with NCI-H460 was 22.2 µM (inactive); in the assay on HL-60, 2.74 µM (inactive); in the assay on NCI-H522 it was 2.75 µM (inactive); with OVCAR-4 it was 15.5 µM (inactive); with EKVX it was 28.2 µM (inactive); with HCC 2998, 16.7 µM (inactive). The GI50 in the assay on SK-MEL-2 is 3.87 µM (inactive); with OVCAR-3, 25.8 µM (inactive); in the assay on HCT-15, 5.9 µM; with LOX IMVI, 11.9 µM (inactive); in the assay with IGROV-1, 9.64 µM (inactive); in the assay with RPMI-8226 it was 10.3 µM (inactive).

Consider `Cc1c(N2C(=O)/C(=C/C=C/c3ccccc3)N=C2c2ccccc2)c(=O)n(-c2ccccc2)n1C`, for which the GI50 with A549 was 25.6 µM (inactive); in the assay with HCT-116 it was 34.8 µM (inactive); in the assay on OVCAR-8, 26.1 µM (inactive); in the assay on M14, 31.4 µM (inactive); in the assay with SK-MEL-5, 16.3 µM (inactive); with SF-268 it was 22.6 µM (inactive). The GI50 in the assay on TK-10 was 32.9 µM (inactive); with NCI-H460, 29.4 µM (inactive); with HL-60, 11.8 µM (inactive); in the assay on NCI-H522, 16 µM (inactive); in the assay with OVCAR-4, 17.8 µM (inactive); in the assay with EKVX, 15.6 µM (inactive). Further, the GI50 with SK-MEL-2 was 21.8 µM (inactive); in the assay on OVCAR-3 it was 20.4 µM (inactive); with HCT-15 it was 5.45 µM; with LOX IMVI it was 21.5 µM (inactive); in the assay on IGROV-1, 16.3 µM (inactive); in the assay with RPMI-8226 it was 19.1 µM (inactive).

Take `CCOC(=O)c1sc2nc(SC)nc(Nc3ccc4c(c3)OCCO4)c2c1N`: the GI50 in the assay with A549 was 10 µM (inactive); with HCT-116 it was 6.3 µM (inactive); in the assay with OVCAR-8 it was 5.12 µM (inactive); with M14, 11 µM (inactive); with SK-MEL-5, 7.53 µM (inactive); with SF-268, 4.69 µM (inactive). Also, the GI50 in the assay on TK-10 was 15.2 µM (inactive); in the assay with NCI-H460, 17.5 µM (inactive); with HL-60 it was > 100 µM (inactive); in the assay with NCI-H522 it was 6.76 µM (inactive); in the assay on OVCAR-4, 10.7 µM (inactive); in the assay on EKVX, 9.59 µM (inactive). In addition, the GI50 is 25.7 µM (inactive) in the assay with HCC 2998; 15 µM (inactive) in the assay with SK-MEL-2; 13.5 µM (inactive) with OVCAR-3; 30.6 µM (inactive) with LOX IMVI; 29.9 µM (inactive) in the assay with IGROV-1; 12.6 µM (inactive) in the assay with RPMI-8226.

On to `COc1ccc(Oc2ccccc2N)cc1`, for which the GI50 is 38.1 µM (inactive) in the assay with A549; 17.2 µM (inactive) with HCT-116; 56.2 µM (inactive) in the assay with OVCAR-8; 58.7 µM (inactive) in the assay on M14; 13.2 µM (inactive) with SK-MEL-5; 42.1 µM (inactive) with SF-268. Also, the GI50 in the assay on DMS-114 was 37.2 µM (inactive); with NCI-H460, 30.6 µM (inactive); in the assay with HL-60, 21 µM (inactive); in the assay with OVCAR-4, 57.3 µM (inactive); with EKVX, 93.8 µM (inactive); with HCC 2998, 20.8 µM (inactive). For the same compound, the GI50 in the assay with SK-MEL-2 is 57 µM (inactive); with OVCAR-3, 26.4 µM (inactive); in the assay with HCT-15, 9.51 µM; with LOX IMVI, 81.1 µM (inactive); in the assay on IGROV-1, 36.6 µM (inactive); in the assay on RPMI-8226, 31.8 µM (inactive).

For `COc1ccc(-c2cc(-c3ccccc3)n(C3OCC(OC(C)=O)C(OC(C)=O)C3OC(C)=O)c(=S)c2C#N)cc1` (stereo not given), the GI50 in the assay with A549 is > 100 µM (inactive); in the assay with HCT-116, 86.5 µM (inactive); in the assay with OVCAR-8, > 100 µM (inactive); in the assay with M14, > 100 µM (inactive); in the assay on SK-MEL-5, > 100 µM (inactive); in the assay with SF-268, > 100 µM (inactive). Also, the GI50 was 63 µM (inactive) with TK-10; 9.42 µM (inactive) with NCI-H460; > 100 µM (inactive) in the assay with HL-60; 66.5 µM (inactive) in the assay on NCI-H522; > 100 µM (inactive) in the assay on OVCAR-4; > 100 µM (inactive) in the assay on EKVX. For the same compound, the GI50 in the assay on HCC 2998 was > 100 µM (inactive); in the assay on SK-MEL-2, 25 µM (inactive); in the assay with OVCAR-3, > 100 µM (inactive); in the assay on HCT-15, greater than 100 µM; with LOX IMVI it was > 100 µM (inactive); in the assay on IGROV-1 it was > 100 µM (inactive). Moreover, the GI50 in the assay on RPMI-8226 is > 100 µM (inactive).

For `O=C(Nc1ccc([N+](=O)[O-])cc1)Nn1cnnc1`, the GI50 in the assay with A549 is 67.3 µM (inactive); with HCT-116, 74.5 µM (inactive); in the assay with OVCAR-8, 27.3 µM (inactive); with M14 it was > 100 µM (inactive); with SK-MEL-5, > 100 µM (inactive); with SF-268 it was 42 µM (inactive). Further, the GI50 in the assay with TK-10 was 42.5 µM (inactive); in the assay with NCI-H460, 37.6 µM (inactive); in the assay on HL-60, > 100 µM (inactive); in the assay on NCI-H522, 49.8 µM (inactive); with OVCAR-4 it was 14.3 µM (inactive); in the assay with EKVX, > 100 µM (inactive). Besides, the GI50 in the assay with HCC 2998 was 55.1 µM (inactive); in the assay with SK-MEL-2, > 100 µM (inactive); in the assay with OVCAR-3, 12.2 µM (inactive); with HCT-15, 45.6 µM; in the assay on LOX IMVI, 96.8 µM (inactive); in the assay with IGROV-1 it was 80 µM (inactive). For the same compound, the GI50 in the assay with RPMI-8226 is 49.7 µM (inactive).
